In US7462615B2, “Inhibitors of cysteine proteases, the pharmaceutical compositions thereof and their therapeutic applications” (Hybrigenics SA, priority 2005, dated 2008):
Where two headings read alike, the source gives them in different places.

Experiments:
[1] = target: T1, USP5 (Homo sapiens, UniProt P45974); assay: USP5 Activity Assay; type: biochemical; settings: 400 nM Ub-AMC; 300 pM enzyme; pre-incubated 30 minutes at 25° C., 60 minutes at 37° C.; sigmoidal fit; read-out: USP 5 (Inhibition of cysteine protease activities)
T1 sequence (P45974 1-858): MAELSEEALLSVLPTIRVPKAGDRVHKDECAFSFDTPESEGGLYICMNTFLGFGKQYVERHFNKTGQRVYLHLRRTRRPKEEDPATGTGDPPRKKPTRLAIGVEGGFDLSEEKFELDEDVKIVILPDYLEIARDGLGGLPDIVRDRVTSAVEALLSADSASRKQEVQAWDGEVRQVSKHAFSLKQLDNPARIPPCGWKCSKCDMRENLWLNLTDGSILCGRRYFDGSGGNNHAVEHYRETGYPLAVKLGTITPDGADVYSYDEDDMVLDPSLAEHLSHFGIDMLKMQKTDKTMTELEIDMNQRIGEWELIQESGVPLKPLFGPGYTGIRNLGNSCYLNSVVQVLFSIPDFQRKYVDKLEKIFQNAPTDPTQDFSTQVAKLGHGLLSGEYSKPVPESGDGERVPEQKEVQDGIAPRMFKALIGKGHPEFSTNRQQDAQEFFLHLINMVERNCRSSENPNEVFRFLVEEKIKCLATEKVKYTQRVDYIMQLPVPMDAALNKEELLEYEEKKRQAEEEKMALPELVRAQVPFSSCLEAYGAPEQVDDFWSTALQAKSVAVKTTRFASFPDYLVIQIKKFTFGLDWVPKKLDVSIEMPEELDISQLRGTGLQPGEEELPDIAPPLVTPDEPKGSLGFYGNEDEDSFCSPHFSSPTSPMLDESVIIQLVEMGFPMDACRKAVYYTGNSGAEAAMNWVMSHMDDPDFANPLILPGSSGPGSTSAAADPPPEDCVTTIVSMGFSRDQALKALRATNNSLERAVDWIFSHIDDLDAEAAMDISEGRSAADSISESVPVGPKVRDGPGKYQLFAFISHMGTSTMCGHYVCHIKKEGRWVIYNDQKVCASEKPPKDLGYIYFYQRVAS
Protocol: USP5 was diluted in USP buffer (50 mM Tris HCl; 0.5 mM EDTA; 5 mM DTT; 0.01% Triton X-100; Bovine Serum Albumin 0.05 mg.ml^−1 pH 7.6). Compounds stocks (100 mM) were stored at −20° C. in DMSO.
Reactions were performed as duplicates in Black LJL 96 well plates (HE microplates; Molecular Devices; 20 μl final reaction volume). The substrate concentration for USP5 was 400 nM Ub-AMC (Boston Biochem). The concentrations of the enzyme (USP5) in specificity assays was 300 pM. The concentrations were determined in order to perform specificity assays under initial velocities at fixed substrate concentration. Compounds were pre-incubated with enzymes for 30 minutes at 25° C. Reactions were initiated by addition of substrate to the plates containing the enzymes (+/− compounds) diluted in assay buffer. Reactions were incubated for 60 minutes at 37° C. Reactions were stopped by adding acetic acid (100 mM final). Readings were performed on a Pherastar Fluorescent Reader (BMG). λ Emission 380 nm; λ Excitation=460 nm. Data (mean values +/− standard deviation) were analyzed as % of control (no compound) and plotted as percentage versus the Log of the compound concentration using GraphPad (Prism). Data were fitted to a sigmoidal model (variable slope).

[2] = system: HCT116 colon cancer cells; assay: HCT116 Cell Viability and Proliferation Assay; type: cell-based; settings: MTS, mean of three independent experiments, read-out: HCT116 GI50 D3
Protocol: HCT116 colon cancer cells were obtained from ATCC (American Type Culture Collection), and maintained in Mc Coy's 5A medium containing 10% FBS, 3 mM glutamine and 1% penicillin/streptomycin. Cells were incubated at 37° C. in a humidified atmosphere containing 5% CO2.
(§1) Cell viability was assayed using the MTS technique in 96-well culture plates (CellTiter 96® Aqueous Non-Radioactive Cell Proliferation Assay, Promega) according to the manufacturer's instructions. MTS (3-(4,5-dimethylthiazol-2-yl)-5(3-carboxymethoxyphenyl)-2-(4-sulfophenyl)-2H-tetra-zolium) is a MTT-derived tetrazolium that is reduced in metabolically active cells into a soluble, cell-permeant formazan. The amount of formazan, detected by its absorbance at 492 nm is proportional to the number of living, metabolically active cells.
(§2) 10^3 HCT116 cells were seeded per well. 24 hours later, the medium was changed and the cells treated in triplicate with the following concentrations of each compound: 10 μM-3.33 μM-1.11 μM-370 nM-123 nM-41 nM-14 nM and 5 nM. The compounds were diluted in 100% DMSO, whose final concentration on cells was kept at 0.5%.
(§3) Cells were incubated with the compounds for 72 hours, and their viability then assayed by the addition of MTS for 2 hours. Absorbance at 492 nm was measured directly from the 96-well culture plates. GI50 (Growth Inhibition 50) concentrations for each compound were calculated using a sigmoidal variable slope fit (Prism 4.0, Graphpad Softwares). Values represent mean of three independent experiments.

[3] = system: PC-3 prostate cancer cells; assay: PC3 Cell Viability and Proliferation Assay; type: cell-based; settings: MTS, mean of three independent experiments, read-out: PC3 GI50 D3
Protocol: PC-3 prostate cancer cells were obtained from ATCC, and maintained in F-12K medium containing 7% FBS and 1% penicillin/streptomycin. Cells were incubated at 37° C. in a humidified atmosphere containing 5% CO2.
as §1, with “(3-(4,5-dimethyl-thiazol-2-yl)-5-(3-carboxymethoxyphenyl)-2-(4-sulfophenyl)-2H-tetrazolium)” for “(3-(4,5-dimethylthiazol-2-yl)-5(3-carboxymethoxyphenyl)-2-(4-sulfophenyl)-2H-tetra-zolium)”
as §2, with “2×10^3 PC3” for “10^3 HCT116”
as §3

[4] = Homo sapiens, HCT-116, 72 hours

Row | Molecule | IC50 [1] [µM] | also measured
1 | Cn1nc2nc3c(nc2n1)-c1ccccc1C3=O [Example 4a, 2-Methyl-2H-1,2,3,4,10-pentaaza-cyclopenta[b]fluoren-9-one] | 23 | GI50 [2, 4]: > 10 µM; GI50 ([3]; Homo sapiens, PC-3, 72 hours): > 10 µM
2 | COCc1nnc2nc3c(nn12)-c1ccccc1C3=O [Example 1i/B, 3-Methoxymethyl-1,2,3a, 4,10-pentaaza-cyclopenta[b]fluoren-9-one] | 0.487 | 
3 | CCc1nnc2nc3c(nn12)C(=O)c1ccccc1-3 [Example 1d/A, 1-Ethyl-2,3,4,10,10a-pentaaza-cyclopenta[b]fluoren-9-one] | 3.23 | 
4 | Cc1nnc2nc3c(nn12)C(=O)c1ccccc1-3 [Example 1b/A, 1-Methyl-2,3,4,10,10a-pentaaza-cyclopenta[b]fluoren-9-one] | 7.6 | 
5 | 6-(7)-Chloro-1-methyl-2,3,4,10,10a-pentaaza-cyclopenta[b]fluoren-9-one [Example 3/A] | 1.54 | GI50 ([2]; 72 hours): 0.361 µM; GI50 ([3]; 72 hours): 0.994 µM
6 | Nc1nnc2nc3c(nn12)C(=O)c1ccccc1-3 [Example 1c/A, 1-Amino-2,3,4,10,10a-pentaaza-cyclopenta[b]fluoren-9-one] | 2.8 | GI50 ([3]; Homo sapiens, PC-3, 72 hours): > 10 µM
7 | CC(C)Cc1nnc2nc3c(nn12)C(=O)c1ccccc1-3 [Example 1g/A, 1-Isobutyl-2,3,4,10,10a-pentaaza-cyclopenta[b]fluoren-9-one] | > 100 | 
8 | O=C1c2ccccc2-c2nc3nn(Cc4ccccc4)nc3nc21 [Example 4b, 2-Benzyl-2H-1,2,3,4,10-pentaaza-cyclopenta[b]fluoren-9-one] |  | GI50 [2, 4]: > 10 µM; GI50 ([3]; Homo sapiens, PC-3, 72 hours): > 10 µM
9 | CCCc1nnc2nc3c(nn12)C(=O)c1ccccc1-3 [Example 1e/A, 1-Propyl-2,3,4,10,10a-pentaaza-cyclopenta[b]fluoren-9-one] | > 100 | 
10 | Cc1nnc2nc3c(nn12)-c1ccc(Cl)cc1C3=O [Example 3/B, 7-Chloro-3-methyl-1,2,3a, 4,10-pentaaza-cyclopenta[b]fluoren-9-one] | 0.26 | 
11 | CCCCc1nnc2nc3c(nn12)C(=O)c1ccccc1-3 [Example 1f/A, 1-Butyl-2,3,4,10,10a-pentaaza-cyclopenta[b]fluoren-9-one] | 3.9 | 
12 | CCCCc1nnc2nc3c(nn12)-c1ccccc1C3=O [Example 1f/B, 3-Butyl-1,2,3a,4,10-pentaaza-cyclopenta[b]fluoren-9-one] | 0.237 | 
13 | O=C1c2ccccc2-c2nc3nnc(CO)n3nc21 [Example 1h/A, 1-Hydroxymethyl-2,3,4,10,10a-pentaaza-cyclopenta[b]fluoren-9-one] | 2.5 | 
14 | COCc1nnc2nc3c(nn12)C(=O)c1ccccc1-3 [Example 1i/A, 1-Methoxymethyl-2,3,4,10,10a-pentaaza-cyclopenta[b]fluoren-9-one] | > 100 | 
